# According to patent publication US20100273696A1, “Composition and method for the prevention and removal of unwanted paint on a surface” (priority 2009, published 2010):
# Legend:
# [1] = Solubility in water of possible ingredients; format: physicochemical
# [2] = Toxicity (hazard class) of possible ingredients; settings: hazard symbol or 'none'
Compound,Solubility in H2O ([1]; result in words),Toxicity [2],Solubility in H2O ([1]; given as percent) [%]
COCCOCCOCCOC [triethylene glycol dimethyl ether],complete,none,
CCCCOCCOCCOC(C)=O [[2-(2-butoxyethoxy)-ethyl]-acetate],,none,6.5
COC(=O)CCC(=O)OC [dimethyl succinate],,,7.5
COCC(C)OCC(C)OC (centres unmarked) [dipropylene glycol dimethyl ether],complete,none,
octyl ethercarboxylic acid (8 EO),complete,none,
O=C1OCCO1 [ethylene carbonate],,none,
COCCOCCOC [diethylene glycol dimethyl ether],complete,,
CCCOC(C)COC(C)CO (centres unmarked) [dipropylene glycol monopropyl ether],complete,none,
lauryl ethercarboxylic acid (10 EO),complete,none,
CCOC(C)COC(C)CO (centres unmarked) [dipropylene glycol monoethyl ether],complete,none,
COC(C)COC(C)COC(C)CO (centres unmarked) [tripropylene glycol monomethyl ether],complete,none,
CCCOCCOCCO [diethylene glycol monopropyl ether],complete,none,
CCOCCOCCOCC [diethylene glycol diethyl ether],complete,none,
CCCCOC(C)COC(C)COC(C)CO (centres unmarked) [tripropylene glycol monobutyl ether],,none,
CCOC(=O)CC(CC(C)=O)C(=O)OCC (centres unmarked) [diethyl acetonyl succinate],,none,
oleyl ethercarboxylic acid (9 EO),complete,none,
COCCOCCOCCOCCOC [tetraethylene glycol dimethyl ether],complete,none,
CN1CCCC1=O [N-methyl-2-pyrrolidinone],complete,,
CC1COC(=O)O1 (centres unmarked) [propylene carbonate],,,24
O=C1CCCO1 [γ-butyrolactone],complete,,
COCCOCCO [diethylene glycol monomethyl ether],complete,,
PEG-8 Oleate,,none,
COCCOCCOCCOCCO [tetraethylene glycol monomethyl ether],complete,none,
CCCCOCCOCCOCCCC [diethylene glycol dibutyl ether],,,0.3
COC(C)COC(C)CO (centres unmarked) [dipropylene glycol monomethyl ether],complete,none,
CCOCCOCCO [diethylene glycol monoethyl ether],complete,none,
CCCOCCOCCOCCC [diethylene glycol dipropyl ether],complete,none,
CCCCOCCOCCO [diethylene glycol monobutyl ether],,,10
C[S+](C)[O-] [dimethyl sulfoxide],complete,none,
COCCOCCOCCO [triethylene glycol monomethyl ether],,none,
